ChEMBL document CHEMBL5260815, “Profiling of in vitro activities of urea-based inhibitors against cysteine synthases from Mycobacterium tuberculosis” (Bioorg Med Chem Lett, 2017)

Key:
[1] = target: T1, O-acetylserine sulfhydrylase (Mycobacterium tuberculosis, UniProt P9WP55); experiment: Inhibition of hexahistidine-tagged recombinant Mycobacterium tuberculosis CysK1 expressed in Escherichia coli BL21(DE3) assessed as amount of cysteine produced using O-acetyl-L-serine as substrate incubated for 12 mins by acid-ninhydrin based spectrophotometric assay
[2] = target: T1, O-acetylserine sulfhydrylase; experiment: Inhibition of hexahistidine-tagged recombinant Mycobacterium tuberculosis CysK1 expressed in Escherichia coli BL21(DE3) assessed as dissociation constant using PLP as substrate incubated for 5 mins by fluorescence analysis
[3] = target: T2, S-sulfocysteine synthase (Mycobacterium tuberculosis (strain ATCC 25618 / H37Rv), UniProt Q79FV4); experiment: Inhibition of hexahistidine-tagged recombinant Mycobacterium tuberculosis CysK2 expressed in Escherichia coli BL21(DE3) assessed as amount of S-sulfocysteine produced using […] as substrate incubated for 30 mins by acid-ninhydrin based spectrophotometric assay
T2 sequence (Q79FV4 whole entry): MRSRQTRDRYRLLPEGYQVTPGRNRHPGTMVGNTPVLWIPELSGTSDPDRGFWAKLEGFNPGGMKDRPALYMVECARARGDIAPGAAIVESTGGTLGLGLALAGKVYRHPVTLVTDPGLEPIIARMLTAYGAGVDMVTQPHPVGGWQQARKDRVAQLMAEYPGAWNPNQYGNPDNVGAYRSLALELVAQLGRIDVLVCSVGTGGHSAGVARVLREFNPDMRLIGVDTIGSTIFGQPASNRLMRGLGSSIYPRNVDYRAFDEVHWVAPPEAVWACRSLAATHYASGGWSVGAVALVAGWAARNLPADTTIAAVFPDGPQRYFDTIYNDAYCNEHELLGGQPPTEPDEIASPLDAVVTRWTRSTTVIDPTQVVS

[4] = target: T2, S-sulfocysteine synthase; experiment: Inhibition of hexahistidine-tagged recombinant Mycobacterium tuberculosis CysK2 expressed in Escherichia coli BL21(DE3) assessed as dissociation constant using PLP as substrate incubated for 5 mins by fluorescence analysis
[5] = target: O-phosphoserine sulfhydrylase (Mycobacterium tuberculosis (strain ATCC 25618 / H37Rv), UniProt P9WP53); experiment: Inhibition of Mycobacterium tuberculosis CysM
Chain of O-phosphoserine sulfhydrylase (P9WP53 whole entry): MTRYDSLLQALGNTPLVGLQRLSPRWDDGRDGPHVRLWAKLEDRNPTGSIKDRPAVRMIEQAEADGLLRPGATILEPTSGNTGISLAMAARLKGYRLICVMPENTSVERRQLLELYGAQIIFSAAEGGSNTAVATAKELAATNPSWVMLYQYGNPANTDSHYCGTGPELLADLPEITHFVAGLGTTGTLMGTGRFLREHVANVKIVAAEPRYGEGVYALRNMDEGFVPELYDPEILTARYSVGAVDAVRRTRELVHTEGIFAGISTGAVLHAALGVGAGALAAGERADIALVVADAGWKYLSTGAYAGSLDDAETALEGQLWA

[6] = target: T2, S-sulfocysteine synthase; experiment: Inhibition of hexahistidine-tagged recombinant Mycobacterium tuberculosis CysK2 expressed in Escherichia coli BL21(DE3) assessed as inhibition constant using […] as substrate by Lineweaver-Burk plot analysis

Structure (SMILES) | IC50 [1] | Kd [2] | IC50 [3] | Kd [4] | IC50 [5] | Ki [6]
O=C(Nc1cccc(C(=O)O)c1)Nc1ccc(Cl)c(Cl)c1 | 11.2 µM | 241 µM | 10.1 µM | 48.7 µM | 480 nM | 
O=C(Nc1ccc(Cl)c(Cl)c1)Nc1ccc(O)c(C(=O)O)c1 | 2.5 µM | 75.7 µM | 29.9 µM |  |  | 
Cc1ccc(NC(=O)Nc2cccc(C(=O)O)c2)cc1 |  |  |  | 148 µM |  | 
O=C(Nc1cccc(-c2ccccc2)c1)Nc1ccc(O)c(C(=O)O)c1 | 9.3 µM |  | 10.3 µM | 102 µM |  | 
O=C(Nc1ccc(Cl)cc1)Nc1cccc(C(=O)O)c1 |  |  | 13 µM | 16.9 µM |  | 
O=C(Nc1ccc(Br)cc1)Nc1cccc(C(=O)O)c1 |  |  | 27.6 µM | 17.7 µM |  | 
O=C(Nc1cccc(-c2ccccc2)c1)Nc1ccc(C(=O)O)c(O)c1 | 21.2 µM |  | 26.9 µM |  |  | 
O=C(Nc1cccc(C(=O)O)c1)Nc1cccc(-c2ccccc2)c1 | 4.9 µM | 96.8 µM | 6.6 µM | 14.9 µM |  | 1100 nM
O=C(Nc1cccc(-c2nnn[nH]2)c1)Nc1ccc(Cl)c(Cl)c1 |  |  |  | 80.3 µM |  | 
O=C(Nc1ccc(Br)cc1)Nc1ccc(C(=O)O)c(O)c1 | 29.4 µM |  |  |  |  | 
COc1ccc(OC)c(NC(=O)Nc2ccccc2C(=O)O)c1 |  | 59.9 µM |  |  |  | 
O=C(O)c1cccc(NS(=O)(=O)c2cccc(-c3ccc(Cl)c(Cl)c3)c2)c1 |  | 110 µM |  |  |  | 
